{"source": "patent US11597911B2", "about": "“Expansion of populations of T cells by the use of modified serum free media” (Life Technologies Corporation, priority 2017, dated 2023)", "key": {"Primary human T cells": {"test_system": "Primary human T cells", "test": "T cell expansion in serum-free medium with glucose, galactose or mixtures", "type": "cell-based", "conditions": "final sugar 6 g/L; lipid concentrate 1:100; CD3/CD28 beads; counted days 5-12; FIG. 3", "text": "FIG. 3 is a graph depicting that galactose alone is suboptimal for human T cell expansion. Primary human T cells from normal donors were negatively isolated from PBMCs with DYNABEADS® UNTOUCHED™ Human T Cells kit. T cells (seeding density 1×10^6/mL) were activated with DYNABEADS® Human T-Expander CD3/CD28 at a ratio of 3 beads per T cell and cultured in serum-free medium supplemented with GIBCO™ Chemically Defined Lipid Concentrate (1:100) and either d-glucose, d-galactose or mixtures of glucose and galactose as indicated; final concentration of sugar was 6 g/L in all conditions. T cells were fed and counted on days 5, 7, 10 and 12 on a Beckman-Coulter ViCell analyzer. Cell expansion is expressed as cumulative viable T cells over time. Results are representative of at least 3 independent experiments.\nPrimary human T cells from normal donors were negatively isolated from PBMCs with DYNABEADS® UNTOUCHED™ Human T Cells kit. […] T cells were fed and counted on days 5, 7, 10 and 12 on a Beckman-Coulter ViCell analyzer. Cell expansion is expressed as cumulative viable T cells over time. […]"}, "[1]": {"test_system": "Naïve and Central Memory CD4+ T cells", "test": "Expansion and cytokine production of sorted CD4+ T cell subsets in limited glucose:galactose media", "type": "cell-based, human", "conditions": "in the presence of low glucose; FIG. 21", "text": "Bulk CD4+ T cells were sorted into Tregs, Naïve, Tcm (central memory), and Tem (effector memory) subsets based on the markers CD25, CD45RA, CD62L, and CCR7. Based on FIG. 20, T cells of different subpopulations may be sorted through use of FACS. […] Expanded naïve CD4+ T cells preserve the naïve phenotype when grown in limited glucose, as witnessed through FACS analysis (see FIG. 22 and FIG. 23).\nWhile good expansion of T cells can be achieved in media containing multiple ratios of glucose and galactose, ratios with limiting glucose can have a negative impact in interferon gamma production. There is evidence that interferon-gamma expression is regulated via GAPDH in T-cells (Chang, et al Cell. 2013 June 6; 153(6): 1239-1251) thus excessively limiting glycolysis during T cell expansion can impair IFN-γ production. […] Central memory T cells appear not to be effected by glucose level. […] Primary human CD4+ T cells from normal donors isolated via negative selection were obtained from UPenn Human Immunology Core Facility. Cells were separated by flow cytometric sorting into Naïve (CD45RA+/CD27+/CCR7+), and Central Memory (CD45RA−/CD27+/CCR7+), subsets. […] T cells were fed and counted on days 5, 7, 10 and 12 on a Beckman-Coulter Multisizer 3. […]"}}, "data": [{"molecule": "O=C[C@H](O)[C@@H](O)[C@@H](O)[C@H](O)CO", "note": "[D-galactose]", "values": [{"measurement": "in vitro T cell expansion (cumulative viable T cells over time)", "setting": "Primary human T cells", "result": "not sufficient to support optimal in vitro T cell expansion"}, {"measurement": "expansion of naïve T cells", "setting": "[1]", "result": "high rate of expansion"}]}]}
